Assay results from US20260335340A1, “PHARMACEUTICAL COMPOSITION FOR TREATING LIVER CANCER COMPRISING CANNABIDIOL AND ANTICANCER AGENT AS ACTIVE INGREDIENTS AND USE THEREOF” (NEOCANNBIO CO., LTD., priority 2022, published 2026).
Read-outs that look alike come from different tables or passages of the source.

Columns and labels:
HepG2 cells [1] = assay: Combined treatment effect of cabozantinib with cannabis-related compounds (cell viability); format: cell-based; details: Homo sapiens, read-out: IC50 with Cabozantinib
Method: (§1) Cells (1.0×10^4) were seeded in 96-well plates and cultured in a medium for 24 hours. The cultured cells were treated with various concentrations of CBD and/or cabozantinib, etc., for 48 hours, and then cell viability was measured using a WST-8 assay kit (Biomax, SEOUL, Korea).
(§2) Specifically, HepG2 cells, a hepatoma cell line, were seeded at a concentration of 1×10^4 cells/well in a 96-well plate and cultured for 24 hours in an incubator at 37° C. and 10% CO2, then they were treated with cabozantinib at various concentrations and treated or not with cannabidiol (20 μM), and then cultured under the same conditions for 48 hours. After completion of the culture, 1/10 of the WST-8 solution (Quanti-Max™, BIOMAX, Korea) was added to the medium, and the culture was further conducted at 37° C. for 1 hour, the absorbance was measured at 450 nm to determine the cell viability, which was expressed as a ratio to the untreated control group. This experiment was conducted independently and repeated three times. Additionally, as positive control groups, sorafenib, lenvatinib, or regorafenib were treated instead of cabozantinib, respectively.

HepG2 cells [2] = assay: Cell viability (WST-8) of anticancer agents with or without CBD; format: cell-based, human; details: for IC50: Homo sapiens, HepG2, 48 h
Method: Human HCC cell lines (HepG2 and Hep3B) were purchased from the American Type Culture Collection (ATCC). The cell lines were cultured in MEM (Gibco, Carlsbad, MD, USA) and DMEM (Gibco) supplemented with 10% FBS (Gibco), 100 U/mL penicillin, and 100 µg/mL streptomycin, respectively.
as §1, §2

apoptotic proteins = assay: Levels of apoptotic proteins in presence of Chk2 inhibitor; format: cell-based, human; details: with cabozantinib and CBD; FIG. 7B
Excerpt: (§3) Next, to determine whether Chk2 activated by combined treatment with cabozantinib and CBD affects apoptosis, the anti-apoptotic effect mediated by Chk2 inhibitors was confirmed.

p53 [3] = assay: Phosphorylation of p53 in presence of Chk2 inhibitor; format: cell-based, human; details: with cabozantinib and CBD; FIG. 7B
Excerpt: as §3

HepG2 cells [4] = assay: Apoptotic effect of combined treatment in presence of Chk2 inhibitor; format: cell-based, human; details: with cabozantinib and CBD; FIG. 7A
Excerpt: as §3

pCDH-CNR1 HepG2 cells = assay: Cell viability in CNR1 overexpressing HepG2 cells with or without CBD; format: cell-based; details: Homo sapiens
Method: as §1
(§4) Total RNA was extracted from normal liver tissues and cDNA was synthesized to clone a tagged CNR1 and CNR2 coding gene sequences into a pCDH-CMV-EF1-puro vector. The CNR1 and CNR2 genes were amplified by PCR using specific primers including 5′-extension and NotI (NEB, Ipswich, MA, USA) and XbaI (NEB) restriction sites. CloneAmp HiFi PCR Premix ([…], San Jose, CA, USA) was used for PCR reactions. Subsequently, amplicons were obtained from the PCR products by gel extraction, digested with NotI and XbaI enzymes, and cloned into the pCDH-CMV-EF1-puro vector using the In-Fusion® cloning system according to the manufacturer's instructions.
(§5) HepG2 cells were transfected with pCDH-CMV-EF1-puro including the tagged CNR1 and CNR2 coding sequences together with gag-pol and VSV-G plasmids (plasmids 14887 and 8454, respectively; Addgene, Cambridge, MA, USA). […] To confirm the specificity and efficiency of CNR1 and CNR2 overexpression, mRNA expression levels were analyzed using RT-PCR. […]

tyrosine kinase c-Met = details: known; cited from earlier work
VEGFR2 = details: known; cited from earlier work
pCDH-CNR2 HepG2 cells = assay: Cell viability in CNR2 overexpressing HepG2 cells with or without CBD; format: cell-based; details: Homo sapiens
Method: as §1, §4, §5

pCDH-Ctrl HepG2 cells = assay: Cell viability in control vector (pCDH-Ctrl) HepG2 cells with or without CBD; format: cell-based; details: Homo sapiens
Method: as §1, §4, §5

p53 [5] = assay: Inhibition of P53 activation by L-ascorbic acid; format: cell-based, human; details: ER stress induced by cabozantinib and CBD; FIG. 11
Method: (§6) Next, the effect of L-ascorbic acid (LAA), known to alleviate ER stress, on the inhibition of P53 activation and apoptosis was investigated. As a result, it was confirmed that p53 activation and apoptosis caused by ER stress induced by combined treatment with cabozantinib and CBD were suppressed when LAA was treated (FIG. 11).

HepG2 cells [6] = assay: Inhibition of apoptosis by L-ascorbic acid; format: cell-based, human; details: ER stress induced by cabozantinib and CBD; FIG. 11
Method: as §6

[7] = HepG2, 48 h, combined with cabozantinib
[8] = with 20 μM CBD, read-out: IC50 with CBD
[9] = without CBD, read-out: IC50 without CBD
[10] = HepG2, read-out: IC50 without CBD

Work on C=C(C)[C@@H]1CCC(C)=C[C@H]1c1c(O)cc(CCCCC)c(C(=O)O)c1O [CBDA, cannabidiolic acid] yielded an IC50 (HepG2 cells [1]; [7]) of 35.9 ± 1.35 µM.
Work on CCCCCc1cc2c(c(O)c1C(=O)O)[C@@H]1C=C(C)CC[C@H]1C(C)(C)O2 [THCA] yielded an IC50 (HepG2 cells [1]; [7]) of 30.4 ± 0.85 µM.
Compound COc1cc2nccc(Oc3ccc(NC(=O)NC4CC4)c(Cl)c3)c2cc1C(N)=O [Lenvatinib] has an IC50 (HepG2 cells [2]; [8]) of over 100 µM and an IC50 (HepG2 cells [2]; [9]) of over 100 µM.
In the case of CNC(=O)c1cc(Oc2ccc(NC(=O)Nc3ccc(Cl)c(C(F)(F)F)c3)c(F)c2)ccn1 [Regorafenib], the IC50 (HepG2 cells [2]; [8]) is reported as 9.74 µM and the IC50 (HepG2 cells [2]; [9]) is reported as 14.1 µM.
In the case of NC(=O)c1ccc2nc(-c3ccc(Oc4ccc(Cl)cc4)cc3)[nH]c2c1 [BML-277], the “effect on levels of apoptotic proteins” value (apoptotic proteins) is reported as “reduced”, the “effect on phosphorylation of p53” value (p53 [3]) is reported as “reduced the phosphorylation of p53” and the “effect on the apoptotic effect of combined treatment” value (HepG2 cells [4]) is reported as “inhibited the apoptotic effect”.
In the case of CCCCCc1cc(O)c2c(c1)OC(C)(C)[C@@H]1CCC(C)=C[C@@H]21 [THC, tetrahydrocannabinol], the IC50 (HepG2 cells [1]; HepG2, 48 h) is reported as 23.9 ± 0.55 µM.
Work on CNC(=O)c1cc(Oc2ccc(NC(=O)Nc3ccc(Cl)c(C(F)(F)F)c3)cc2)ccn1 [Sorafenib] yielded an IC50 (HepG2 cells [2]; [8]) of 9.24 µM and an IC50 (HepG2 cells [2]; [9]) of 14.6 µM.
In the case of COc1cc2nccc(Oc3ccc(NC(=O)C4(C(=O)Nc5ccc(F)cc5)CC4)cc3)c2cc1OC [Cabozantinib], the IC50 (pCDH-CNR1 HepG2 cells; HepG2, read-out: IC50 with CBD) is given as 20.2 µM, the IC50 (pCDH-CNR1 HepG2 cells; [10]) is given as over 100 µM and the “inhibition of tyrosine kinase c-Met” value (tyrosine kinase c-Met) is given as “inhibit tyrosine kinase c-Met and VEGFR2”. The “inhibition of VEGFR2” value (VEGFR2) was “inhibit tyrosine kinase c-Met and VEGFR2”, the IC50 (HepG2 cells [2]; [8]) was 15.8 µM and the IC50 (HepG2 cells [2]; [9]) was over 100 µM. For the same compound, the “toxicity of cabozantinib against HepG2 cells when combine treated with cannabidiol” value (HepG2 cells [2]; vs cabozantinib alone, 20 μM CBD, 48 h, FIG. 4A) was “significantly increased”, the IC50 (pCDH-CNR2 HepG2 cells; HepG2, read-out: IC50 with CBD) was 18.2 µM and the IC50 (pCDH-CNR2 HepG2 cells; [10]) was over 100 µM. For the same compound, the IC50 (pCDH-Ctrl HepG2 cells; HepG2, read-out: IC50 with CBD) was 16 µM and the IC50 (pCDH-Ctrl HepG2 cells; [10]) was over 100 µM.
With O=C1O[C@H]([C@@H](O)CO)C(O)=C1O [LAA, L-ascorbic acid] the “effect on p53 activation caused by ER stress” value (p53 [5]) was “suppressed” and the “effect on apoptosis caused by ER stress” value (HepG2 cells [6]) was “suppressed”.
